Results: patent US20090176817A1, “Method of Treatment of Diarrhea-Predominant Irritable Bowel Syndrome in a Subject” (priority 2005, published 2009)

Legend:
[1] = Study S241.1.111: relative bioavailability and food effect, 2 mg tablet vs oral solution; assay type: in vivo, human; settings: for AUC(0-t): AUC(0-last); for half-life: T½
Description: Subjects were randomized to receive a cilansetron 2 mg tablet after an overnight fast, a cilansetron 2 mg tablet after a high-fat breakfast, and a cilansetron 2 mg oral solution after an overnight fast during the three treatment periods, with a 7-day washout between periods. Serial blood sampling was performed up to 24 hours following each treatment, and plasma pharmacokinetics parameters for cilansetron and its metabolites, (4R)-hydroxy cilansetron and (4S)-hydroxy cilansetron, were estimated. FIG. 4, FIG. 5, and FIG. 6 present mean plasma concentration-time profiles for cilansetron and its metabolites following treatment with the cilansetron tablet and oral solution. Table 2.7.1.2.2 presents descriptive statistics for the pharmacokinetic parameters of cilansetron and its metabolites for the tablet and oral solution, and the results of statistical comparisons between treatments (tablet versus solution).
Subjects were randomized to receive a cilansetron 2 mg tablet after an overnight fast, a cilansetron 2 mg tablet after a high-fat breakfast, and a cilansetron 2 mg oral solution after an overnight fast during the three treatment periods, with a 7-day washout between periods. Serial blood sampling was performed up to 24 hours following each treatment and plasma pharmacokinetics parameters for cilansetron and its metabolites, (4R)-hydroxy cilansetron and (4S)-hydroxy cilansetron, were estimated. FIG. 7, FIG. 8, and FIG. 9 present mean plasma concentration-time profiles for cilansetron and its metabolites following treatment with the cilansetron tablet under fasted conditions and following a high-fat meal. Table 2.7.1.2.4 presents descriptive statistics for the pharmacokinetic parameters of cilansetron and its metabolites for the tablet under fed and fasted conditions, and the results of statistical comparisons between treatments (fed versus fasted).

[2] = Study S.241.2.112: population pharmacokinetics (NONMEM) in IBS patients; assay type: in vivo, human; settings: for half-life: both sexes; for predicted steady-state AUC(0-τ) / predicted steady-state Cmax: covariate population PK model, mean (SD); for Increase of apparent oral clearance per 1 mL/min creatinine clearance: population model
Description: The pharmacokinetics and pharmacodynamics of cilansetron following multiple oral administration in non-constipated IBS patients have been examined in a population pharmacokinetic (NONMEM) analysis of a Phase II trial. The study was a double-blind, placebo-controlled, randomized, multi-center, parallel-group, dose ranging study to investigate the Efficacy and safety of four different doses of cilansetron (1 mg, 2 mg, 8 mg, and 16 mg TID) in patients with established IBS (non-constipated patients who suffered from IBS according to the Rome Criteria and were not bothered by constipation for >25% of their IBS episodes). The study was to be performed in approximately 50 centers. A sufficient number of patients were to be recruited to insure that at least 88 patients per treatment group were evaluable for efficacy and to get a total of 440 completers. […] There were interim assessments at the end of the 4th week (Visit 3; Day 29) and 8th week (Visit 4; Day 57) and a final assessment at the end of the 12th week (Visit 5; poststudy). Single blood samples for population pharmacokinetic analyses were drawn at Visits 3, 4, 5 or early termination, at 31 of the participating sites. With the exception of Visit 3, the timing of the blood draw in relation to the previous dose was not specified for any of the samples collected, but the time of sampling and the time of last dosing was recorded for each sample collected. For Visit 3, the blood sample had to be taken between 15 minutes and 2 hours of the morning or midday dose.
Various covariates were screened during development of the population pharmacokinetic model, including age, height, weight, body surface area, body mass index, race, gender, smoking status, serum creatinine levels, serum creatinine clearance, total bilirubin levels, cilansetron dose, and concomitant medication usage. Some efficacy and safety parameters were also evaluated in this population analysis using correlation analyses. Efficacy parameters evaluated included overall relief of IBS symptoms (Responder or Non-Responder), intensity of abdominal pain, number of stools and stool consistency, symptoms of abdominal and rectal discomfort (straining, urgency, feeling of incomplete defecation, passage of mucus, bloating, and feeling of abdominal distension), and upper GI symptoms at Visit 5 (vomiting, heartburn, early satiety, postprandial fullness, sensation of prolonged digestion, and nausea). Safety parameters evaluated included the top ten most frequently observed adverse events (constipation, flatulence, nausea, abdominal pain, headache, dyspepsia, infection, gastrointestinal disorders, anorexia, and diarrhea).
The population analysis included data from 160 patients (63 males and 97 females) with a median age of 45.5 years (range: 20-81 years), median weight of 78 kg (range: 47-121 kg), and median height of 170 cm (range: 147-196 cm). More than 90% of the patients were White and 18.8% of the patients were considered smokers. […] A total of 392 quantifiable concentrations for cilansetron, 393 quantifiable concentrations for (4S)-hydroxy cilansetron, and 397 quantifiable concentrations for (4R)-hydroxy cilansetron from 160 patients were included in the NONMEM datasets for population analyses.
FIG. 54, FIG. 55, and FIG. 56 present mean steady-state plasma concentration-time profiles for cilansetron and its 4-hydroxy metabolites, and Table 2.7.2.3.29 and Table 2.7.2.3.30 present descriptive statistics for the estimated pharmacokinetic parameters of cilansetron and its 4-hydroxy metabolites from the final covariate population pharmacokinetic model. The cilansetron concentration data were best described by a one-compartment model with first-order input, an absorption lag time, and first-order elimination. A log-normal distribution was used to describe the variability of clearance, volume of distribution and absorption rate constant between patients. The residual error was best described by an exponential model. […]

[3] = both sexes, human, in vivo, 2 mg
[4] = both sexes, human, in vivo, po, 2 mg
[5] = 2 mg oral solution, fasted, median
[6] = 2 mg tablet, fasted, single dose
[7] = 2 mg tablet, fed (high-fat breakfast)
[8] = cilansetron 1 mg TID, IBS patients, Bayesian estimates, population PK model, arith. mean
[9] = cilansetron 1 mg TID, IBS patients
[10] = cilansetron 2 mg TID, IBS patients, Bayesian estimates, population PK model, arith. mean
[11] = cilansetron 2 mg TID, IBS patients
[12] = cilansetron 8 mg TID, IBS patients, Bayesian estimates, population PK model, arith. mean
[13] = cilansetron 8 mg TID, IBS patients
[14] = cilansetron 16 mg TID, IBS patients, Bayesian estimates, population PK model, arith. mean
[15] = cilansetron 16 mg TID, IBS patients

SMILES: Cc1nccn1C[C@H]1CCc2c(c3cccc4c3n2CCC4)C1=O [Cilansetron, (R)-(−)-4,5,6,8,9,10-hexahydro-10-[(2-methyl-1H-imidazol-1-yl)methyl]-11H-pyrido-[3,2,1-jk]-carbazol-11-one]
- AUC(0-inf) ([1]; both sexes, human, in vivo, 2 mg, AUC(0-inf)): 0.0228 µg·h/mL
- AUC(0-t) [1, 3]: 0.0224 µg·h/mL
- Cmax ([1]; both sexes, human, in vivo, 2 mg, Cmax): 8.24 ng/mL
- Tmax ([1]; both sexes, human, in vivo, 2 mg, Tmax): 1 h
- half-life [1, 3]: 1.42 h
- AUC(0-inf) ([1]; both sexes, human, in vivo, po, 2 mg, AUC(0-inf)): 0.0207 µg·h/mL
- AUC(0-t) [1, 4]: 0.0202 µg·h/mL
- Cmax ([1]; both sexes, human, in vivo, po, 2 mg, Cmax): 7.55 ng/mL
- Tmax ([1]; both sexes, human, in vivo, po, 2 mg, Tmax): 1 h
- half-life [1, 4]: 1.48 h
- Intrasubject % CV for AUC ([1]; both, human, in vivo): 19.2%
- Intrasubject % CV for Cmax ([1]; both, human, in vivo): 24.5%
- AUC(0-inf) increase under fed conditions ([1]; both, human, in vivo, 2 mg): 20%
- AUC(0-inf) ratio fed/fasted ([1]; both, human, in vivo, 2 mg): 121%
- Cmax ratio fed/fasted ([1]; both, human, in vivo, 2 mg): 101%
- AUC(0-inf) ratio tablet/oral solution ([1]; both, human, in vivo, po): 99%
- Cmax ratio tablet/oral solution ([1]; both, human, in vivo, po): 108%
- half-life ([2]; human, in vivo, 1 mg): 4.76 h
- half-life ([2]; human, in vivo, 2 mg): 4.3 h
- half-life ([2]; human, in vivo, 8 mg): 4.5 h
- half-life ([2]; human, in vivo, 16 mg): 4.5 h
- Apparent oral clearance decrease with concomitant medications ([2]; both, human, in vivo, po): 38.6%
- Apparent oral clearance increase in smokers ([2]; both, human, in vivo, po): 32.2%
- Increase of mean apparent oral clearance in smokers ([2]; both, human, in vivo, po): approximately 32%
- CL/F ([2]; human, in vivo, 1 mg): 28.3 L/h
- CL/F ([2]; human, in vivo, 2 mg): 34.1 L/h
- CL/F ([2]; human, in vivo, 8 mg): 34.2 L/h
- CL/F ([2]; human, in vivo, 16 mg): 37.3 L/h

SMILES: Cc1nccn1CC1CCc2c(c3cccc4c3n2CC[C@H]4O)C1=O (stereo partly drawn) [(4R)-hydroxy cilansetron]
- AUC(0-inf) ([1]; 2 mg oral solution, fasted): 14.3 (26) ng · h/mL
- AUC(0-last) ([1]; 2 mg oral solution, fasted): 13.5 (27) ng · h/mL
- Cmax ([1]; 2 mg oral solution, fasted): 2.82 (26) ng/mL
- T½ ([1]; 2 mg oral solution, fasted): 3.90 (19) h
- Tmax [1, 5]: 1.00 h
- AUC(0-inf) [1, 6]: 14.4 (25) ng · h/mL
- AUC(0-last) [1, 6]: 13.7 (26) ng · h/mL
- Cmax [1, 6]: 2.87 (20) ng/mL
- T½ [1, 6]: 3.90 (22) h
- Tmax ([1]; 2 mg tablet, fasted, median): 1.25 h
- AUC(0-inf) ([1]; 2 mg tablet, fed): 13.6 (26) ng · h/mL
- Cmax ([1]; 2 mg tablet, fed): 2.23 (26) ng/mL
- T½ ([1]; 2 mg tablet, fed): 4.46 (31) h
- AUC(0-last) [1, 7]: 12.8 (27) ng · h/mL
- Tmax ([1]; 2 mg tablet, fed, median): 1.75 h
- CL/F [2, 8]: 234 L/h
- T½ [2, 8]: 9.55 h
- predicted steady-state AUC(0-τ) [2, 9]: 6.42 (1.40) ng · h/mL
- predicted steady-state Cmax [2, 9]: 1.05 (0.19) ng/mL
- CL/F [2, 10]: 232 L/h
- T½ [2, 10]: 9.56 h
- predicted steady-state AUC(0-τ) [2, 11]: 13.0 (2.64) ng · h/mL
- predicted steady-state Cmax [2, 11]: 2.17 (0.37) ng/mL
- CL/F [2, 12]: 229 L/h
- T½ [2, 12]: 9.79 h
- predicted steady-state AUC(0-τ) [2, 13]: 53.0 (10.1) ng · h/mL
- predicted steady-state Cmax [2, 13]: 8.56 (1.70) ng/mL
- CL/F [2, 14]: 232 L/h
- T½ [2, 14]: 9.80 h
- predicted steady-state AUC(0-τ) [2, 15]: 98.6 (18.8) ng · h/mL
- predicted steady-state Cmax [2, 15]: 16.7 (3.0) ng/mL
- Increase of apparent oral clearance per 1 mL/min creatinine clearance [2]: 0.447 L/h

SMILES: Cc1nccn1CC1CCc2c(c3cccc4c3n2CC[C@@H]4O)C1=O (stereo partly drawn) [(4S)-hydroxy cilansetron]
- AUC(0-inf) ([1]; 2 mg oral solution, fasted): 7.20 (23) ng · h/mL
- AUC(0-last) ([1]; 2 mg oral solution, fasted): 5.82 (24) ng · h/mL
- Cmax ([1]; 2 mg oral solution, fasted): 0.607 (19) ng/mL
- T½ ([1]; 2 mg oral solution, fasted): 7.13 (25) h
- Tmax [1, 5]: 3.00 h
- AUC(0-inf) [1, 6]: 7.31 (22) ng · h/mL
- AUC(0-last) [1, 6]: 5.98 (22) ng · h/mL
- Cmax [1, 6]: 0.637 (17) ng/mL
- T½ [1, 6]: 7.26 (32) h
- Tmax ([1]; 2 mg tablet, fasted, median): 3.00 h
- AUC(0-inf) ([1]; 2 mg tablet, fed): 7.54 (19) ng · h/mL
- Cmax ([1]; 2 mg tablet, fed): 0.602 (17) ng/mL
- T½ ([1]; 2 mg tablet, fed): 7.94 (34) h
- AUC(0-last) [1, 7]: 6.10 (19) ng · h/mL
- Tmax ([1]; 2 mg tablet, fed, median): 4.00 h
- CL/F [2, 8]: 140 L/h
- T½ [2, 8]: 5.42 h
- predicted steady-state AUC(0-τ) [2, 9]: 3.85 (0.92) ng · h/mL
- predicted steady-state Cmax [2, 9]: 0.546 (0.105) ng/mL
- CL/F [2, 10]: 136 L/h
- T½ [2, 10]: 5.55 h
- predicted steady-state AUC(0-τ) [2, 11]: 7.68 (1.59) ng · h/mL
- predicted steady-state Cmax [2, 11]: 1.10 (0.20) ng/mL
- CL/F [2, 12]: 134 L/h
- T½ [2, 12]: 5.64 h
- predicted steady-state AUC(0-τ) [2, 13]: 31.6 (7.68) ng · h/mL
- predicted steady-state Cmax [2, 13]: 4.46 (1.04) ng/mL
- CL/F [2, 14]: 142 L/h
- T½ [2, 14]: 5.31 h
- predicted steady-state AUC(0-τ) [2, 15]: 63.2 (16.5) ng · h/mL
- predicted steady-state Cmax [2, 15]: 9.03 (2.03) ng/mL
- Increase of apparent oral clearance per 1 mL/min creatinine clearance [2]: 0.883 L/h
